In general, IC50 refers to the concentration that gives 50% inhibition. The term melting point denotes the temperature of the solid-liquid transition.

For one series, the target named is T1, mPGES-1 (Homo sapiens, UniProt O14684).
T1 construct: microsomal fractions from IL-1β-stimulated A549 cells served as the enzyme source; endogenous in cells; host or cells: A549 cells (IL-1β-stimulated), microsomal fraction
T1 sequence (O14684 1-152): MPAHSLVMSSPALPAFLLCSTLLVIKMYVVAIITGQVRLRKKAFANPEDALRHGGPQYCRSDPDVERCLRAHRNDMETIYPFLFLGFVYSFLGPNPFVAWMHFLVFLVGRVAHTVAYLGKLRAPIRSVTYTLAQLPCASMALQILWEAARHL
Put plainly: Cell-free mPGES-1 enzyme assay (microsomal fractions from IL-1β-stimulated A549 cells). The following applies: for remaining activity at 10 µM: 10 µM compound, read-out: mPGES-1 RA (%) 10 µM (residual activity percentage); for remaining activity at 10 µM / IC50: cell-free, A549 microsomes. The series is classed as biochemical. As to the method:
A cell-free assay was conducted to evaluate the capacity of compounds […] to act as inhibitors of mPGES-1. In this assay, microsomal fractions from IL-1β-stimulated A549 cells served as the enzyme source ([Gürses et al., 2021]). During the initial screening phase, compounds 3a–j were examined for their effects on mPGES-1 at a concentration of 10 µM.
Microsomal measures of A549 cells expressing mPGES-1 were made in accordance with prior research findings ([Koeberle et al., 2008]). These cells were cultivated in Dulbecco’s Modified Eagle Medium and resuspended in a homogenization buffer. Subsequently, the microsomes were subjected to pre-incubation with either assessed compounds or a carrier solution containing 0.1 percent DMSO. The enzymatic process was halted by introducing FeCl3, citric acid, and 11-PGE2 as an internal standard. The quantities of Prostaglandin E2 (PGE2) were measured via RP-HPLC methodologies.

Another series addresses T2, soya bean 5-LOX (Glycine max, UniProt P08170).
T2 construct: purchased Cayman Chemical, Ann Arbor, Michigan, USA 760700
T2 sequence (P08170 1-839): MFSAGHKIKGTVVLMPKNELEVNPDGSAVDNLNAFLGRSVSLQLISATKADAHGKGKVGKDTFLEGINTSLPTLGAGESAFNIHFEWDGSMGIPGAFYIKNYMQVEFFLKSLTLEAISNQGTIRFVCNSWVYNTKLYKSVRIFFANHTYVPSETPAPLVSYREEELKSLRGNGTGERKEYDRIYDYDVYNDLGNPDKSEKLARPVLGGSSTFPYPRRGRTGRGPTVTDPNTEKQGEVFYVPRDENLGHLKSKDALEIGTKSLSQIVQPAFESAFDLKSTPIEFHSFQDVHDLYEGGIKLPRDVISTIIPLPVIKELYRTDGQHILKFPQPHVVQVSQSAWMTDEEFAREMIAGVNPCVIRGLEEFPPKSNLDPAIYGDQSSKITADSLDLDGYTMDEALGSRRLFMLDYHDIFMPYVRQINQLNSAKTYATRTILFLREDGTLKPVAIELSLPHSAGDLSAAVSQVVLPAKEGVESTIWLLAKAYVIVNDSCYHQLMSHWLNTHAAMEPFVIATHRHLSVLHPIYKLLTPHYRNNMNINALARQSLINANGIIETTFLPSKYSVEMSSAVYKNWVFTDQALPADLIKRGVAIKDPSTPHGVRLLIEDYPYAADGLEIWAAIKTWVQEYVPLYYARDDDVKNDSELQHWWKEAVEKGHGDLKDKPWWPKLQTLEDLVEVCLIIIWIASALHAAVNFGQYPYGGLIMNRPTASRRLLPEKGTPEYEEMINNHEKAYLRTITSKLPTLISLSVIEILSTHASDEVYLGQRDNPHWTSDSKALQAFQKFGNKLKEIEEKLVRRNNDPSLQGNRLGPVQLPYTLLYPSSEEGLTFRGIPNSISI
The series can be described thus: 5-LOX enzyme assay (EIA kit, Cayman 760700). The series is classed as biochemical. From the text: The capacity of compounds 3a–j to inhibit the enzyme 5-lipoxygenase (5-LOX) has been investigated ([Youssif et al., 2019]).
The study used an enzyme immune assay (EIA) kit (catalogue no. 760700, Cayman Chemical, Ann Arbor, Michigan, USA) to evaluate the inhibitory activity of target analogues against soya bean 5-LOX, ensuring compliance with manufacturer’s instructions and protocols, and calculating IC50 values ([Roschek et al., 2009]).

The test system of the next series is rat intestinal mucosa. The series can be described thus: Gastric ulcerogenic activity (macroscopic inspection). As to conditions: oral 10 mg/kg. More on the design: Score: Severity lesions: scale not given here. It counts as in vivo. As to the method: The two most common side effects of long-term NSAID use are gastrointestinal erosion and ulcers ([Hendawy et al., 2021]). As a result, we were curious about the ulcerogenic potential of the most efficacious drugs, 3e and 3j, when given orally. The ulcerogenic effects of 3e and 3j were assessed by macroscopic inspection of rat intestinal mucosa after oral administration of 10 mg/kg of 3e, 3j, indomethacin, and celecoxib ([Manivannan and Chaturvedi, 2011]).
The ulcerogenic effects of compounds 3e and 3j were evaluated by macroscopic examination of rat intestinal mucosa after oral administration of 10 mg/kg of these compounds and indomethacin and celecoxib ([Manivannan and Chaturvedi, 2011]). See Appendix A for details.

Series [1] concerns carrageen-induced paw edema. Put plainly: Carrageenan-induced paw edema bioassay. The series is classed as in vivo, rat. The following applies: for % Of edema inhibition 1 h: 1 h after carrageenan injection; for % Of edema inhibition 3 h: 3 h after carrageenan injection; for % Of edema inhibition 5 h: 5 h after carrageenan injection. Set-up: concentration or dose not given beside the values. As to the method: The compounds’ efficacy was measured as edema inhibition percentage (EI %) after 1, 3, and 5 h of carrageenan injection vs. the conventional medicine Celecoxib.
Compounds 3c, 3e, 3h, and 3j were chosen for in vivo anti-inflammatory testing using the carrageen-induced paw edema bioassay method described by [Winter et al, (1962)]. The compounds’ efficacy was measured as edema inhibition percentage (EI%) after 1, 3, and 5 h of carrageenan injection vs. the conventional medicine Celecoxib.
In general terms: In the carrageenan paw model, swelling and tenderness develop within hours.

Each structure is given as a SMILES string.

Consider `CC1=C(C(=O)Nc2ccc(S(N)(=O)=O)cc2)C(c2ccccc2)NC(=O)N1` (stereo not drawn) [Compound 3f, 6-methyl-2-oxo-4-phenyl-N-[4-sulfamoylphenyl]-1,2,3,4-tetrahydropyrimidine-5-carboxamide], for which the melting point lay in the range of 258 to 260 °C. Also, on mPGES-1, the remaining activity at 10 µM came out at 91.4% and the IC50 was found to be 4.78 µM. Also, on soya bean 5-LOX, the IC50 was found to be 5.34 µM.

`CC1=C(C(=O)Nc2ccc(S(N)(=O)=O)cc2)C(c2cccc(O)c2)NC(=S)N1` (stereo not drawn) [Compound 3b, 4-[3-hydroxyphenyl]-6-methyl-N-[4-sulfamoylphenyl]-2-thioxo-1,2,3,4-tetrahydropyrimidine-5-carboxamide] displayed a melting point of 288 to 291 °C. Also, on mPGES-1, the remaining activity at 10 µM was 69.2% and the IC50 worked out at 3.89 µM. In addition, it took 4.82 µM to reach half-maximal inhibition at soya bean 5-LOX (IC50).

Consider `COc1cc(C2NC(=O)NC(C)=C2C(=O)Nc2ccc(S(N)(=O)=O)cc2)cc(OC)c1OC` (stereo not drawn) [Compound 3i, 6-methyl-2-oxo-N-[4-sulfamoylphenyl]-4-[3,4,5-trimethoxyphenyl]-1,2,3,4-tetrahydropyrimidine-5-carboxamide], for which the melting point lay within 260 to 263 °C. Moreover, on mPGES-1, the remaining activity at 10 µM was 53.6% and 2.89 µM corresponded to half-maximal inhibition (IC50). At soya bean 5-LOX, this compound yielded an IC50 of 3.97 µM.

As to `COc1ccc2c(c1)c(CC(=O)O)c(C)n2C(=O)c1ccc(Cl)cc1` [Indomethacin, reference compound], in the series on rat intestinal mucosa, the “Score: No. of gastric ulcers” value is 8.5 ± 0.40 and the “Score: Severity lesions” value stood at 12.50 ± 0.70.

On to `Cc1ccc(-c2cc(C(F)(F)F)nn2-c2ccc(S(N)(=O)=O)cc2)cc1` [Celecoxib, reference compound], for which, in the series on rat intestinal mucosa, the “Score: No. of gastric ulcers” value is on record as 2.5 ± 0.10 and the “Score: Severity lesions” value is recorded as 5.80 ± 0.20. Besides, in series [1], the “% Of edema inhibition 1 h” value came to 40%, the “% Of edema inhibition 3 h” value came to 54% and the “% Of edema inhibition 5 h” value came out at 22%.

The compound `CC1=C(C(=O)Nc2ccc(S(N)(=O)=O)cc2)C(c2cccc(O)c2)NC(=O)N1` (stereo not drawn) [Compound 3g, 4-[3-hydroxyphenyl]-6-methyl-2-oxo-N-[4-sulfamoylphenyl]-1,2,3,4-tetrahydropyrimidine-5-carboxamide] showed a melting point of 270 to 272 °C. In addition, at mPGES-1, the remaining activity at 10 µM was found to be 64.7% and the IC50 was determined as 3.45 µM. In addition, the IC50 against soya bean 5-LOX was determined as 4.45 µM.

In the case of `CC1=C(C(=O)Nc2ccc(S(N)(=O)=O)cc2)C(c2ccccc2)NC(=S)N1` (stereo not drawn) [Compound 3a, 6-methyl-4-phenyl-N-[4-sulfamoylphenyl]-2-thioxo-1,2,3,4-tetrahydropyrimidine-5-carboxamide], the melting point was in the range of 266 to 269 °C. On mPGES-1, the remaining activity at 10 µM amounted to 89.2% and the IC50 was found to be 4.28 µM. The compound further registered an IC50 against soya bean 5-LOX of 5.85 µM.

In turn, `COc1ccc(C2NC(=S)NC(C)=C2C(=O)Nc2ccc(S(N)(=O)=O)cc2)cc1O` (stereo not drawn) [Compound 3c, 4-[3-hydroxy-4-methoxyphenyl]-6-methyl-N-[4-sulfamoylphenyl]-2-thioxo-1,2,3,4-tetrahydropyrimidine-5-carboxamide] yielded a melting point of 296 °C. Further, at mPGES-1, the remaining activity at 10 µM came to 33.6% and the IC50 amounted to 1.53 µM. Further, the “fold less potent than 3j (mPGES-1)” value at mPGES-1 (from IC50 values) stood at 1.5 fold. For the same compound, half-maximal inhibition against soya bean 5-LOX (IC50) required 2.87 µM. In series [1], the “% Of edema inhibition 1 h” value came to 29%, the “% Of edema inhibition 3 h” value is given as 46% and the “% Of edema inhibition 5 h” value is 55%.

Regarding `COc1cc(C2NC(=S)NC(C)=C2C(=O)Nc2ccc(S(N)(=O)=O)cc2)cc(OC)c1OC` (stereo not drawn) [Compound 3d, 6-Methyl-N-[4-sulfamoylphenyl]-2-thioxo-4-[3,4,5-trimethoxyphenyl]-1,2,3,4-tetrahydropyrimidine-5-carboxamide], the melting point is 270 to 272 °C. Also, at mPGES-1, the remaining activity at 10 µM worked out at 46.8% and the IC50 was determined as 2.7 µM. For the same compound, half-maximal inhibition against soya bean 5-LOX (IC50) was put at 3.65 µM.
